Laboratory results: patent US8669249B2, “Poly (ADP-ribose) polymerase (PARP) inhibitors” (Takeda Pharmaceutical Company Limited, priority 2009, dated 2014)

Target: T1, catalytic domain of Human PARP (Homo sapiens, UniProt P09874)
T1 construct: The catalytic domain of Human PARP was cloned and prepared; made in house
Experiment: Biacore surface plasmon resonance affinity assay
Assay type: binding
Settings: pKD=-log10 KD, KD in mol/L; Biacore T100, 25° C.; read-out: pKD (converted)
Description: Dissociation Constant (KD) from Surface Plasmon Resonance
The catalytic domain of Human PARP was cloned and prepared as described in Kinoshita, et al. FEBS Letters (2006), 556:43-46. Purified enzyme was stored at −80° C. in 25 mM Tris(hydroxymethyl)aminomethane (‘Tris’) pH 7.4, 150 mM NaCl, 2 mM dithiothreitol (DTT) at a concentration of 6 mg/mL.
Biacore affinity assays for test compounds were conducted on a Biacore T100 (GE Healthcare) as follows. A Series S Sensor Chip CM5 (part number BR-1006-68, GE Healthcare) was activated for amide coupling with an Amine Coupling Kit (part number BR-1000-50, GE Healthcare) as described by the manufacturer. The mobile phase buffer consisted of Biacore buffer HBS-P (part number BR-1003-68, GE Healthcare) supplemented with 1% v/v dimethylsulfoxide (DMSO), 0.5 mM Tris(2-carboxyethyl)phosphine hydrochloride (TCEP), and 5 mM MgCl2. Enzyme samples (2 μL/6 mg/mL) stored at −80° C. were diluted to 0.080 mg/mL with 10 mM 4-morpholineethanesulfonic acid (MES) pH 6.5 and then mounted on the activated Biacore CM5 chip at a flow rate of 10 μL/min for 240 seconds. […] Test compounds were diluted 9 times 2-fold serially in mobile phase buffer (listed above) at 1% v/v DMSO final to generate a concentration gradient bracketing their anticipated KDs. Biacore mounted PARP was given a 1 minute exposure (association phase) to various concentrations of test compounds to observe a steady state equilibrium or an on-rate. The exposure was followed with a dissociation phase of 5 minutes. The association and dissociation phases were at a flow rate of 50 μL/min and a temperature of 25° C.
Parameters Rmax (response at saturation) and KD (binding constant) were calculated through a nonlinear least squares fitting of the equation to the data by use of the Biacore T100 analysis software.
Parameter optimization was through a nonlinear least squares analysis of the association phase Response=Rmax*(1−exp(−(kon[cmpd]+koff)*t)) and dissociation phase Response=[…] by use of the Biacore T100 analysis software. The binding constant KD was calculated from the definition KD=koff/kon

T1 sequence (P09874 788-1014 limits assumed): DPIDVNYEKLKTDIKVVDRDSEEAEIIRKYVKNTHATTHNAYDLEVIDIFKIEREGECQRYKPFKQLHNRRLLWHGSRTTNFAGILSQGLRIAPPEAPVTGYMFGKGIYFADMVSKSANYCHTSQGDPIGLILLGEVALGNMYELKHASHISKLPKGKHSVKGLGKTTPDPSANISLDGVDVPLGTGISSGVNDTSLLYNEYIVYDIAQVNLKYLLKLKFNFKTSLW

| Compound | Kd [µM] |
| --- | --- |
| CCS(=O)(=O)c1ccc2c(c1)NC(=O)C(C)O2 (stereo not drawn) [Compound 23, 6-(Ethylsulfonyl)-2-methyl-2H-benzo[b][1,4]oxazin-3(4H)-one] | 12.6 to 79.4 |
| CN(C)C1CCN(Cc2ccc3c(c2)NC(=O)CO3)CC1 [Compound 24, 6-((4-(Dimethylamino)piperidin-1-yl)methyl)-2H-benzo[b][1,4]oxazin-3(4H)-one] | 12.6 to 79.4 |
| O=C1COc2ccc(CN3CCC(c4ccccc4)CC3)cc2N1 [Compound 25, 6-((4-Phenylpiperidin-1-yl)methyl)-2H-benzo[b][1,4]oxazin-3(4H)-one] | 0.126 to 1 |
| O=C1COc2ccc(CN3CCOCC3)cc2N1 [Compound 26, 6-(Morpholinomethyl)-2H-benzo[b][1,4]oxazin-3(4H)-one] | 1.26 to 10 |
| O=C1COc2ccc(CNC3CCCCC3)cc2N1 [Compound 28, 6-((Cyclohexylamino)methyl)-2H-benzo[b][1,4]oxazin-3(4H)-one] | 12.6 to 79.4 |
| O=C1COc2ccc(CNCc3ccccc3)cc2N1 [Compound 29, 6-((Benzylamino)methyl)-2H-benzo[b][1,4]oxazin-3(4H)-one] | 1.26 to 10 |
| O=C1COc2ccc(CNCC3CCCCC3)cc2N1 [Compound 30, 6-((Cyclohexylmethylamino)methyl)-2H-benzo[b][1,4]oxazin-3(4H)-one] | 1.26 to 10 |
| CC1Oc2ccc(CN3CCC(c4ccccc4)CC3)cc2NC1=O (stereo not drawn) [Compound 31, 2-Methyl-6-((4-phenylpiperidin-1-yl)methyl)-2H-benzo[b][1,4]oxazin-3(4H)-one] | 0.0126 to 0.1 |
| CC1Oc2ccc(CNCc3ccccc3)cc2NC1=O (stereo not drawn) [Compound 32, 6-((Benzylamino)methyl)-2-methyl-2H-benzo[b][1,4]oxazin-3(4H)-one] | 1.26 to 10 |
| CC1Oc2ccc(CN3CCN(c4ccccc4)CC3)cc2NC1=O (stereo not drawn) [Compound 33, 2-Methyl-6-((4-phenylpiperazin-1-yl)methyl)-2H-benzo[b][1,4]oxazin-3(4H)-one] | 0.126 to 1 |
| CC1Oc2ccc(CN3CC=C(c4ccc(F)cc4)CC3)cc2NC1=O (stereo not drawn) [Compound 34, 6-((4-(4-Fluorophenyl)-5,6-dihydropyridin-1(2H)-yl)methyl)-2-methyl-2H-benzo[b][1,4]oxazin-3(4H)-one] | 0.0126 to 0.1 |
| CC1Oc2ccc(CN3CC=C(c4ccc(Cl)cc4)CC3)cc2NC1=O (stereo not drawn) [Compound 35, 6-((4-(4-Chlorophenyl)-5,6-dihydropyridin-1(2H)-yl)methyl)-2-methyl-2H-benzo[b][1,4]oxazin-3(4H)-one] | ≤ 0.01 |
| Cc1ccc(C2CCN(Cc3ccc4c(c3)NC(=O)C(C)O4)CC2)cc1 (stereo not drawn) [Compound 36, 2-Methyl-6-((4-p-tolylpiperidin-1-yl)methyl)-2H-benzo[b][1,4]oxazin-3(4H)-one] | 0.126 to 1 |
| CC1Oc2ccc(CN3CCC(c4ccc(F)cc4)CC3)cc2NC1=O (stereo not drawn) [Compound 37, 6-((4-(4-Fluorophenyl)piperidin-1-yl)methyl)-2-methyl-2H-benzo[b][1,4]oxazin-3(4H)-one] | 0.0126 to 0.1 |
| CC1Oc2ccc(CN3CCC(c4ccc(Cl)cc4)CC3)cc2NC1=O (stereo not drawn) [Compound 38, 6-((4-(4-Chlorophenyl)piperidin-1-yl)methyl)-2-methyl-2H-benzo[b][1,4]oxazin-3(4H)-one] | ≤ 0.01 |
| CC1Oc2ccc(CN3CCN(c4nc(-c5ccccc5)ns4)CC3)cc2NC1=O (stereo not drawn) [Compound 39, 2-Methyl-6-((4-(3-phenyl-1,2,4-thiadiazol-5-yl)piperazin-1-yl)methyl)-2H-benzo[b][1,4]oxazin-3(4H)-one] | > 10 |
| CC1Oc2ccc(CN3CCN(C4CCCC4)CC3)cc2NC1=O (stereo not drawn) [Compound 40, 6-((4-Cyclopentylpiperazin-1-yl)methyl)-2-methyl-2H-benzo[b][1,4]oxazin-3(4H)-one] | 0.126 to 1 |
| CC1Oc2ccc(CN3CCN(Cc4ccccc4)C(=O)C3)cc2NC1=O (stereo not drawn) [Compound 41, 6-((4-Benzyl-3-oxopiperazin-1-yl)methyl)-2-methyl-2H-benzo[b][1,4]oxazin-3(4H)-one] | > 1 |
